A short description of this experiment: The growth inhibitory concentration of compound was determined by logistic regression of viable cell number on Human leukemia 60 cells. It counts as functional, 60 cell.

Molecules are shown by their SMILES.

`CC(C)OC(=O)CNC(=O)C(CSCc1ccc(Br)cc1)NC(=O)CCC(N)C(=O)OC(C)C` (configuration not stated): the GC50 is 19.6 µM.

`CCCCCOC(=O)CNC(=O)C(CSCc1ccc(Br)cc1)NC(=O)CCC(N)C(=O)OCCCCC` (configuration not stated) gave a GC50 of 22.2 µM.

In turn, `CCCCOC(=O)CNC(=O)C(CSCc1ccc(Br)cc1)NC(=O)CCC(N)C(=O)OCCCC` (configuration not stated) showed a GC50 of 18.5 µM.

Regarding `NC(CCC(=O)NC(CSCc1ccc(Br)cc1)C(=O)NCC(=O)OC1CCCCC1)C(=O)OC1CCCCC1` (configuration not stated), the GC50 is 29.2 µM.

For the compound `NC(CCC(=O)NC(CSCc1ccc(Br)cc1)C(=O)NCC(=O)OC1CCCC1)C(=O)OC1CCCC1` (configuration not stated), the GC50 is 4.2 µM.

In turn, `CCCOC(=O)CNC(=O)C(CSCc1ccc(Br)cc1)NC(=O)CCC(N)C(=O)OCCC` (configuration not stated) registered a GC50 of 7.8 µM.

Regarding `CCOC(=O)CNC(=O)C(CSCc1ccc(Br)cc1)NC(=O)CCC(N)C(=O)OCC` (configuration not stated), the GC50 amounted to 8.3 µM.
